The structures appear in SMILES notation.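 48-hour exposure; five concentrations; linearly interpolated endpoints. GI50: concentration for 50% inhibition of growth. TGI is the concentration that stops growth completely.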

Data on 11 compounds can be found in PubChem BioAssay (NCI).

Among the test systems are ACHN renal; COLO 205 colon; HCT-116 colon; K-562 leukemia; LOX IMVI melanoma; MOLT-4 leukemia; NCI-H23 lung; OVCAR-4 ovarian; SF-268 CNS; SF-295 CNS; UO-31 renal; SK-MEL-2 melanoma; SK-OV-3 ovarian; LXFL 529 NSCLC.
Common to all, as to assay: NCI tumour cell line growth inhibition, 48 h

Regarding `NS(=O)(=O)c1ccc(N=Nc2nc3[nH]cnc(=S)c3[nH]2)cc1`, the TGI was above 100 µM in the test with ACHN renal; 7.09 µM in the test on COLO 205 colon; 16.3 µM with HCT-116 colon; above 53.1 µM with K-562 leukemia; 15.4 µM in the test on LOX IMVI melanoma; 4.19 µM with MOLT-4 leukemia. The TGI in the test with NCI-H23 lung was 14.2 µM; with OVCAR-4 ovarian, above 100 µM; in the test with SF-268 CNS, above 100 µM; in the test on SF-295 CNS, above 64.7 µM; in the test on UO-31 renal, above 43.8 µM.
For `CCN(CC)CCOCC1CCCN2CCCCC12` (configuration not stated), the TGI in the test on ACHN renal, with COLO 205 colon, in the test on HCT-116 colon, in the test with K-562 leukemia, in the test with LOX IMVI melanoma and with MOLT-4 leukemia was above 100 µM each time. In addition, the TGI in the test with NCI-H23 lung, in the test with OVCAR-4 ovarian, in the test with SF-268 CNS, in the test with SF-295 CNS, in the test on SK-MEL-2 melanoma and with SK-OV-3 ovarian was above 100 µM throughout. Besides, the TGI in the test on UO-31 renal was above 100 µM.
For the compound `C=CCCCCn1c2ccccc2c2c(C)c3c[n+](C)ccc3c(C)c21`, the TGI with ACHN renal stood at 12.8 µM; with COLO 205 colon it was 1.08 µM; in the test on HCT-116 colon, 1.25 µM; in the test on K-562 leukemia it was 1.29 µM; in the test on LXFL 529 NSCLC, 1.32 µM; with MOLT-4 leukemia, 1.28 µM. The TGI in the test on OVCAR-4 ovarian was 1.27 µM; in the test on SF-268 CNS, 1.56 µM; in the test with SF-295 CNS, 2.6 µM; with SK-MEL-2 melanoma, 1.52 µM; in the test with SK-OV-3 ovarian, 3.2 µM; in the test on UO-31 renal, 19.4 µM.
With `CCCC(=O)[O-].CCCC(=O)[O-].N.N.N.N.[Co+3].[O-][Cl+3]([O-])([O-])[O-]`, the TGI in the test with ACHN renal, in the test with COLO 205 colon, in the test on HCT-116 colon, in the test with K-562 leukemia, in the test with LOX IMVI melanoma and in the test with LXFL 529 NSCLC was above 100 µM throughout. Moreover, the TGI in the test with MOLT-4 leukemia, with NCI-H23 lung, in the test on OVCAR-4 ovarian, in the test with SF-268 CNS, with SF-295 CNS and in the test with SK-MEL-2 melanoma was above 100 µM throughout. Moreover, the TGI in the test on SK-OV-3 ovarian and in the test with UO-31 renal was above 100 µM throughout. The GI50 with LXFL 529 NSCLC is above 100 µM.
As to `Clc1ccc2c(Cl)nc(-c3ccccc3)nc2c1`, the TGI with ACHN renal was above 100 µM; with COLO 205 colon, above 100 µM; in the test on HCT-116 colon, above 100 µM; in the test with K-562 leukemia it was above 100 µM; in the test on LXFL 529 NSCLC it was above 100 µM; with MOLT-4 leukemia it was 84.5 µM. Besides, the TGI was 35.9 µM with NCI-H23 lung; above 100 µM in the test on SF-268 CNS; 90.3 µM in the test on SF-295 CNS; 95 µM in the test on SK-MEL-2 melanoma; 62.3 µM in the test on SK-OV-3 ovarian; above 100 µM in the test with UO-31 renal.
Turning to `COc1cc(O)c2c(c1O)C(=O)c1cc(C)ncc1C2=O`, the TGI in the test on ACHN renal was above 50 µM; in the test with COLO 205 colon, above 50 µM; in the test on HCT-116 colon, above 50 µM; in the test on K-562 leukemia it was above 50 µM; with LOX IMVI melanoma it was 45.2 µM; in the test on LXFL 529 NSCLC, above 50 µM. Besides, the TGI in the test on MOLT-4 leukemia is above 50 µM; in the test on NCI-H23 lung, 27.2 µM; with OVCAR-4 ovarian it was above 50 µM; in the test on SF-268 CNS, above 50 µM; in the test on SF-295 CNS, above 50 µM; in the test on SK-MEL-2 melanoma it was above 50 µM. Moreover, the TGI in the test on SK-OV-3 ovarian came out at 35.7 µM; with UO-31 renal, 42.5 µM.
`OCCN1CCN(c2nc(Nc3ccc(-c4nc5ccccc5[nH]4)cc3)c3cn[nH]c3n2)CC1`: the GI50 in the test with ACHN renal is 1.75 µM; in the test with LOX IMVI melanoma, 1.63 µM; with NCI-H23 lung it was 1.83 µM; in the test on SF-295 CNS, 1.88 µM; with UO-31 renal, 1.64 µM. Further, the TGI is 3.16 µM with ACHN renal; 3.13 µM with LOX IMVI melanoma; 3.54 µM in the test with NCI-H23 lung; 3.31 µM in the test on SF-295 CNS; 3.14 µM in the test with UO-31 renal.
Turning to `CCCCCCCSCC1OC(n2cnc3c(N)ncnc32)C(O)C1O` (configuration not stated), the TGI with ACHN renal is above 100 µM; in the test with COLO 205 colon, 28.3 µM; in the test on HCT-116 colon, 11.4 µM; in the test with K-562 leukemia, above 100 µM; with LOX IMVI melanoma it was above 100 µM; in the test on LXFL 529 NSCLC, 29.8 µM. Further, the TGI in the test with MOLT-4 leukemia was 62.4 µM; in the test on NCI-H23 lung, above 100 µM; with OVCAR-4 ovarian, 93 µM; in the test with SF-268 CNS, above 100 µM; in the test on SF-295 CNS it was above 100 µM; with SK-MEL-2 melanoma it was 44.8 µM.
`Oc1c2c(c3c4c1N=CC=4CCN=3)C1(C=C(Br)C(O)C(Br)=C1)CCN2` (configuration not stated): the TGI with COLO 205 colon was 0.418 µM; in the test with HCT-116 colon, 1.9 µM; with K-562 leukemia, above 21 µM; in the test with LOX IMVI melanoma, 3.09 µM; in the test on NCI-H23 lung, 2.64 µM; in the test with OVCAR-4 ovarian it was 2.86 µM. For the same compound, the TGI in the test with SF-268 CNS came to 5.75 µM; with SF-295 CNS, 7.74 µM; in the test on SK-MEL-2 melanoma, 11.8 µM; with SK-OV-3 ovarian, 26 µM; in the test with UO-31 renal, 28 µM.
With `Cc1n(-c2ccccc2)c2c([n+]1Cc1ccc([N+](=O)[O-])cc1)C(=O)c1ccccc1C2=O`, the TGI was determined as 13.9 µM with ACHN renal; 3.07 µM in the test on COLO 205 colon; 4.36 µM in the test on HCT-116 colon; 4.64 µM with K-562 leukemia; 3.73 µM in the test on LOX IMVI melanoma; 2.76 µM with LXFL 529 NSCLC. The TGI in the test on MOLT-4 leukemia came out at 2.57 µM; with NCI-H23 lung, 5.22 µM; in the test on OVCAR-4 ovarian, 3.2 µM; in the test with SF-268 CNS it was 3.71 µM; in the test on SF-295 CNS, 15.3 µM; in the test with SK-MEL-2 melanoma, 2.97 µM. The TGI came to 12.5 µM with SK-OV-3 ovarian and 26.6 µM in the test with UO-31 renal.
With `Nc1nc(Sc2ccc([N+](=O)[O-])cn2)c2[nH]cnc2n1`, the TGI with ACHN renal was above 73.5 µM; in the test on COLO 205 colon, 39 µM; in the test on HCT-116 colon, above 39.7 µM; in the test on K-562 leukemia, above 100 µM; with LOX IMVI melanoma, 17.1 µM; in the test on MOLT-4 leukemia, above 35.8 µM. Moreover, the TGI with NCI-H23 lung was 31.2 µM; in the test with OVCAR-4 ovarian it was above 61.2 µM; with SF-268 CNS, above 100 µM; in the test with SF-295 CNS, above 94.2 µM; in the test on SK-MEL-2 melanoma it was 10.2 µM; in the test on SK-OV-3 ovarian, above 51.1 µM. In the test on UO-31 renal, this compound registered a TGI of 24.7 µM.
